Values quoted from earlier work, collected in patent publication US20140038836A1, “Novel Pharmacogene Single Nucleotide Polymorphisms and Methods of Detecting Same” (priority 2012, published 2014).
Where two headings read alike, the source gives them in different places. One block for each compound: values may come before it.

Tests used:
[1] = target: T1, ADRA2A (alpha2A subtype alpha-2-adrenergic receptor) (Homo sapiens, UniProt P08913); details: for rank order for antagonists: antagonists of the alpha2A receptor; for rank order of potency for agonists: agonists of the alpha2A receptor
T1 sequence (P08913 1-465): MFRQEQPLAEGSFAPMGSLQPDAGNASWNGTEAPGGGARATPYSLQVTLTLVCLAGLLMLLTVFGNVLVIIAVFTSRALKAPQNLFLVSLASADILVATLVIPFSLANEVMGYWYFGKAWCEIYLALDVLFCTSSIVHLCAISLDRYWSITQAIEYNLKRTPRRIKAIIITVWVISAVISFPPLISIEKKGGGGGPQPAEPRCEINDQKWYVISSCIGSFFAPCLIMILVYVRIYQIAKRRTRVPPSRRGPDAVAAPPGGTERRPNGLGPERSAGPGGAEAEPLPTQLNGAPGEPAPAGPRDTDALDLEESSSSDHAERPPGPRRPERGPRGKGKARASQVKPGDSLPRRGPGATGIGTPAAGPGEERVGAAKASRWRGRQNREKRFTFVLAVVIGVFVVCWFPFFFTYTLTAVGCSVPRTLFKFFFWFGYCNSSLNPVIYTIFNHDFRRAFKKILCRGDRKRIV

[2] = homozygote ABCB1 3435TT carriers
[3] = system: schizophrenic Chinese patients from Shanghai; details: 230-bp allele of (GT)n repeat or 230-bp/C-270/rs6265G haplotype versus other alleles or haplotypes
[4] = system: psychotic Caucasian patients; details: 3435CC or 2677GG genotypes versus heterozygous or TT carriers
[5] = system: Japanese major depression sample; details: 3435TT genotype (p=0.0008), haplotype block 3435C-2677G-1236T, 6 weeks
[6] = system: patients of Asian ethnicity with Major Depressive Disorder; details: carriers of 3435TT (rs1045642) genotype, p=0.001
[7] = system: Caucasian patients with major depression; details: ABCB1 3435TT allele; P=0.042, 95% CI 1.01-1.86
[8] = system: patients diagnosed with generalized anxiety disorder; details: carriers of HTR2A rs7997012 G-allele
[9] = system: patients with schizophrenia; details: (T) allele of rs3813929

SMILES: C=CCc1ccccc1OCC(O)CNC(C)C (stereo not shown) [alprenolol]
rank order for antagonists [1]: yohimbine>phentolamine=mianserine>chlorpromazine=spiperone=prazosin>propanolol>alprenolol=pindolol

digoxin plasma levels after oral administration [2]: increased
SMILES: C[C@H]1O[C@@H](O[C@H]2[C@@H](O)C[C@H](O[C@H]3[C@@H](O)C[C@H](O[C@H]4CC[C@@]5(C)[C@H](CC[C@@H]6[C@@H]5C[C@@H](O)[C@]5(C)[C@@H](C7=CC(=O)OC7)CC[C@]65O)C4)O[C@@H]3C)O[C@@H]2C)C[C@H](O)[C@@H]1O [digoxin]

SMILES: Cc1nc2n(c(=O)c1CCN1CCC(c3noc4cc(F)ccc34)CC1)CCCC2 [risperidone]
AUC of risperidone (3435TT versus 3435CC subjects who were CYP2D6*10/*10, P=0.001): higher
metabolic ratios of risperidone (3435TT versus 3435CC with CYP2D6*10/*10, P=0.006): higher
AUC of risperidone (between ABCB1 3435C>T genotypes, healthy subjects (n=72), 2 mg): no significant differences
response to risperidone [3]: better response

SMILES: CNC[C@H](O)c1ccc(O)c(O)c1 [epinephrine]
rank order of potency for agonists [1]: oxymetazoline>clonidine>epinephrine>norepinephrine>phenylephrine>dopamine>p-synephrine>p-tyramine>serotonin=p-octopamine

SMILES: CN(C)CCCN1c2ccccc2Sc2ccc(Cl)cc21 [chlorpromazine]
rank order for antagonists [1]: yohimbine>phentolamine=mianserine>chlorpromazine=spiperone=prazosin>propanolol>alprenolol=pindolol

dose-normalized clozapine levels [4]: significantly lower
SMILES: CN1CCN(C2=Nc3cc(Cl)ccc3Nc3ccccc32)CC1 [clozapine]

P-gp substrate property (P-gp): not substrates of P-gp
SMILES: CN1CCN2c3ncccc3Cc3ccccc3C2C1 (stereo not shown) [mirtazapine]

P-gp substrate property (P-gp): substrates of P-gp
SMILES: Fc1ccc([C@@H]2CCNC[C@H]2COc2ccc3c(c2)OCO3)cc1 [paroxetine]
response to paroxetine [5]: poor response

SMILES: NCCc1c[nH]c2ccc(O)cc12 [serotonin]
rank order of potency for agonists [1]: oxymetazoline>clonidine>epinephrine>norepinephrine>phenylephrine>dopamine>p-synephrine>p-tyramine>serotonin=p-octopamine

SMILES: CC(C)NCC(O)COc1cccc2[nH]ccc12 (stereo not shown) [pindolol]
rank order for antagonists [1]: yohimbine>phentolamine=mianserine>chlorpromazine=spiperone=prazosin>propanolol>alprenolol=pindolol

SMILES: COC(=O)[C@@H]1[C@H]2C[C@H]3c4[nH]c5ccccc5c4CCN3C[C@@H]2CC[C@@H]1O [yohimbine]
rank order for antagonists [1]: yohimbine>phentolamine=mianserine>chlorpromazine=spiperone=prazosin>propanolol>alprenolol=pindolol

SMILES: NCCc1ccc(O)cc1 [p-tyramine]
rank order of potency for agonists [1]: oxymetazoline>clonidine>epinephrine>norepinephrine>phenylephrine>dopamine>p-synephrine>p-tyramine>serotonin=p-octopamine

SMILES: CNCC(O)c1ccc(O)cc1 (stereo not shown) [p-synephrine]
rank order of potency for agonists [1]: oxymetazoline>clonidine>epinephrine>norepinephrine>phenylephrine>dopamine>p-synephrine>p-tyramine>serotonin=p-octopamine

SMILES: O=C(CCCN1CCC2(CC1)C(=O)NCN2c1ccccc1)c1ccc(F)cc1 [spiperone]
rank order for antagonists [1]: yohimbine>phentolamine=mianserine>chlorpromazine=spiperone=prazosin>propanolol>alprenolol=pindolol

SMILES: CN(C)CCC[C@@]1(c2ccc(F)cc2)OCc2cc(C#N)ccc21 [escitalopram]
remission on the antidepressant [6]: slower remission

SMILES: CNCCC=C1c2ccccc2CCc2ccccc21 [nortriptyline]
OR for nortriptyline-induced postural hypotension [7]: 1.37

SMILES: COc1ccc(C(CN(C)C)C2(O)CCCCC2)cc1 (stereo not shown) [venlafaxine XR]
treatment outcome over time [8]: better treatment outcome

SMILES: Clc1cccc(Cl)c1N=C1NCCN1 [clonidine]
rank order of potency for agonists [1]: oxymetazoline>clonidine>epinephrine>norepinephrine>phenylephrine>dopamine>p-synephrine>p-tyramine>serotonin=p-octopamine

SMILES: Cc1ccc(N(CC2=NCCN2)c2cccc(O)c2)cc1 [phentolamine]
rank order for antagonists [1]: yohimbine>phentolamine=mianserine>chlorpromazine=spiperone=prazosin>propanolol>alprenolol=pindolol

SMILES: COc1ccc(C(CN(C)C)C2(O)CCCCC2)cc1 (stereo not shown) [venlafaxine]
P-gp substrate property (P-gp): substrates of P-gp

SMILES: Cc1cc2c(s1)Nc1ccccc1N=C2N1CCN(C)CC1 [olanzapine]
effect on weight gain [9]: protective effect against weight-gain

SMILES: NCC(O)c1ccc(O)cc1 (stereo not shown) [p-octopamine]
rank order of potency for agonists [1]: oxymetazoline>clonidine>epinephrine>norepinephrine>phenylephrine>dopamine>p-synephrine>p-tyramine>serotonin=p-octopamine

P-gp substrate property (P-gp): substrates of P-gp
SMILES: CN(C)CCCC1(c2ccc(F)cc2)OCc2cc(C#N)ccc21 (stereo not shown) [citalopram]

SMILES: NC[C@H](O)c1ccc(O)c(O)c1 [norepinephrine]
rank order of potency for agonists [1]: oxymetazoline>clonidine>epinephrine>norepinephrine>phenylephrine>dopamine>p-synephrine>p-tyramine>serotonin=p-octopamine

P-gp substrate property (P-gp): substrates of P-gp
SMILES: CN(C)CCC=C1c2ccccc2CCc2ccccc21 [amitriptyline]

SMILES: Cc1cc(C(C)(C)C)c(O)c(C)c1CC1=NCCN1 [oxymetazoline]
rank order of potency for agonists [1]: oxymetazoline>clonidine>epinephrine>norepinephrine>phenylephrine>dopamine>p-synephrine>p-tyramine>serotonin=p-octopamine

SMILES: CN1CCN2c3ccccc3Cc3ccccc3C2C1 (stereo not shown) [mianserine]
rank order for antagonists [1]: yohimbine>phentolamine=mianserine>chlorpromazine=spiperone=prazosin>propanolol>alprenolol=pindolol
